In ChEMBL document CHEMBL1201862, “PubChem BioAssay data set” (2004):
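Growth conditions: 96-well plates. Treatment: test compound, 48 hours, 5 concentrations. Analysis: linear interpolation between bracketing concentrations; unreached endpoints set to highest concentration. GI50 marks 50% less growth.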 Activity calls are given as the source filed them. Rule as the data show it: active = GI50 up to about 1.1 µM and inactive = higher.

How the values were obtained:
Experiment in all cases: growth of human tumour cells (NCI), 48 h
[1] = tested on: 786-0
[2] = tested on: A498
[3] = tested on: A549
[4] = tested on: ACHN
[5] = tested on: CAKI-1
[6] = tested on: CCRF-CEM
[7] = tested on: COLO 205
[8] = tested on: DLD-1
[9] = tested on: DMS-114
[10] = tested on: DMS-273
[11] = tested on: EKVX
[12] = tested on: HCC 2998
[13] = tested on: HCT-116
[14] = tested on: HCT-15
[15] = tested on: HL-60
[16] = tested on: HOP-18
[17] = tested on: HOP-62
[18] = tested on: IGROV-1
[19] = tested on: K562
[20] = tested on: KM-20L2
[21] = tested on: KM12
[22] = tested on: LXFL 529
[23] = tested on: M14
[24] = tested on: M19-MEL
[25] = tested on: MOLT-4
[26] = tested on: Malme-3M
[27] = tested on: NCI-H23
[28] = tested on: NCI-H460
[29] = tested on: NCI-H522
[30] = tested on: OVCAR-3
[31] = tested on: OVCAR-4
[32] = tested on: OVCAR-8
[33] = tested on: RPMI-8226
[34] = tested on: RXF 393
[35] = tested on: RXF 631
[36] = tested on: SF-268
[37] = tested on: SF-295
[38] = tested on: SF-539
[39] = tested on: SK-MEL-28
[40] = tested on: SK-MEL-2
[41] = tested on: SK-MEL-5
[42] = tested on: SK-OV-3
[43] = tested on: SN12C
[44] = tested on: SNB-19
[45] = tested on: SNB-75
[46] = tested on: SNB-78
[47] = tested on: SW-620
[48] = tested on: TK-10
[49] = tested on: U-251
[50] = tested on: UACC-257
[51] = tested on: UACC-62
[52] = tested on: UO-31
[53] = tested on: XF498
[54] = tested on: HOP-92
[55] = tested on: HT-29
[56] = tested on: LOX IMVI
[57] = tested on: NCI-H226
[58] = tested on: OVCAR-5

O=C(O)C1(C(=O)O)CC1
GI50 [1]: > 100 µM (inactive)
GI50 [2]: > 100 µM (inactive)
GI50 [3]: > 100 µM (inactive)
GI50 [4]: > 100 µM (inactive)
GI50 [5]: > 100 µM (inactive)
GI50 [6]: > 100 µM (inactive)
GI50 [7]: > 100 µM (inactive)
GI50 [8]: > 100 µM (inactive)
GI50 [9]: > 100 µM (inactive)
GI50 [10]: > 100 µM (inactive)
GI50 [11]: > 100 µM (inactive)
GI50 [12]: > 100 µM (inactive)
GI50 [13]: > 100 µM (inactive)
GI50 [14]: > 100 µM
GI50 [15]: > 100 µM (inactive)
GI50 [16]: > 100 µM (inactive)
GI50 [17]: > 100 µM (inactive)
GI50 [18]: > 100 µM (inactive)
GI50 [19]: > 100 µM (inactive)
GI50 [20]: > 100 µM (inactive)
GI50 [21]: > 100 µM (inactive)
GI50 [22]: > 100 µM (inactive)
GI50 [23]: 54.7 µM (inactive)
GI50 [24]: > 100 µM (inactive)
GI50 [25]: > 100 µM (inactive)
GI50 [26]: > 100 µM (inactive)
GI50 [27]: > 100 µM (inactive)
GI50 [28]: > 100 µM (inactive)
GI50 [29]: > 100 µM (inactive)
GI50 [30]: > 100 µM (inactive)
GI50 [31]: > 100 µM (inactive)
GI50 [32]: > 100 µM (inactive)
GI50 [33]: > 100 µM (inactive)
GI50 [34]: 40 µM (inactive)
GI50 [35]: > 100 µM (inactive)
GI50 [36]: > 100 µM (inactive)
GI50 [37]: > 100 µM (inactive)
GI50 [38]: > 100 µM (inactive)
GI50 [39]: > 100 µM (inactive)
GI50 [40]: > 100 µM (inactive)
GI50 [41]: > 100 µM (inactive)
GI50 [42]: > 100 µM (inactive)
GI50 [43]: > 100 µM (inactive)
GI50 [44]: > 100 µM (inactive)
GI50 [45]: > 100 µM (inactive)
GI50 [46]: > 100 µM (inactive)
GI50 [47]: > 100 µM (inactive)
GI50 [48]: > 100 µM (inactive)
GI50 [49]: > 100 µM (inactive)
GI50 [50]: > 100 µM (inactive)
GI50 [51]: > 100 µM (inactive)
GI50 [52]: > 100 µM (inactive)
GI50 [53]: > 100 µM (inactive)

COC(=O)NN=C1C(C)(C)C(=NNC(=O)OC)C1(C)C
GI50 [1]: > 100 µM (inactive)
GI50 [2]: > 100 µM (inactive)
GI50 [3]: > 100 µM (inactive)
GI50 [4]: > 100 µM (inactive)
GI50 [5]: > 85.1 µM (inactive)
GI50 [6]: > 44.9 µM (inactive)
GI50 [7]: > 41.6 µM (inactive)
GI50 [8]: > 61.9 µM (inactive)
GI50 [9]: > 41.6 µM (inactive)
GI50 [10]: > 100 µM (inactive)
GI50 [11]: > 100 µM (inactive)
GI50 [12]: > 100 µM (inactive)
GI50 [13]: > 45.5 µM (inactive)
GI50 [14]: > 90.6 µM
GI50 [15]: > 100 µM (inactive)
GI50 [16]: > 100 µM (inactive)
GI50 [17]: > 100 µM (inactive)
GI50 [54]: > 100 µM (inactive)
GI50 [55]: > 36.9 µM (inactive)
GI50 [18]: > 100 µM (inactive)
GI50 [19]: > 100 µM (inactive)
GI50 [20]: > 100 µM (inactive)
GI50 [21]: > 100 µM (inactive)
GI50 [56]: > 35.8 µM (inactive)
GI50 [22]: > 100 µM (inactive)
GI50 [23]: > 100 µM (inactive)
GI50 [24]: > 40.6 µM (inactive)
GI50 [25]: > 100 µM (inactive)
GI50 [26]: > 100 µM (inactive)
GI50 [57]: > 100 µM (inactive)
GI50 [27]: > 48.9 µM (inactive)
GI50 [28]: > 100 µM (inactive)
GI50 [29]: > 61.4 µM (inactive)
GI50 [30]: > 100 µM (inactive)
GI50 [31]: > 100 µM (inactive)
GI50 [58]: > 100 µM (inactive)
GI50 [32]: > 41.2 µM (inactive)
GI50 [34]: > 100 µM (inactive)
GI50 [35]: > 100 µM (inactive)
GI50 [36]: > 84.1 µM (inactive)
GI50 [37]: > 100 µM (inactive)
GI50 [38]: > 100 µM (inactive)
GI50 [39]: > 100 µM (inactive)
GI50 [40]: > 100 µM (inactive)
GI50 [41]: > 100 µM (inactive)
GI50 [42]: > 100 µM (inactive)
GI50 [43]: > 68.2 µM (inactive)
GI50 [44]: > 100 µM (inactive)
GI50 [45]: > 100 µM (inactive)
GI50 [46]: > 100 µM (inactive)
GI50 [47]: > 100 µM (inactive)
GI50 [48]: > 100 µM (inactive)
GI50 [49]: > 62.7 µM (inactive)
GI50 [50]: > 100 µM (inactive)
GI50 [51]: > 100 µM (inactive)
GI50 [52]: > 100 µM (inactive)
GI50 [53]: > 96.6 µM (inactive)
